{
  "source": "paper PMC6302548",
  "about": "“Dual Inhibition of the Lactate Transporters MCT1 and MCT4 Is Synthetic Lethal with Metformin due to NAD+ Depletion in Cancer Cells” (Cell Reports, 2018)",
  "key": {"[1]": {"target": "T1, MCT4 (monocarboxylate transporter 4) (Homo sapiens, UniProt O15427)", "T1 construct": "gene SLC16A3", "T1 sequence (O15427 2-465)": "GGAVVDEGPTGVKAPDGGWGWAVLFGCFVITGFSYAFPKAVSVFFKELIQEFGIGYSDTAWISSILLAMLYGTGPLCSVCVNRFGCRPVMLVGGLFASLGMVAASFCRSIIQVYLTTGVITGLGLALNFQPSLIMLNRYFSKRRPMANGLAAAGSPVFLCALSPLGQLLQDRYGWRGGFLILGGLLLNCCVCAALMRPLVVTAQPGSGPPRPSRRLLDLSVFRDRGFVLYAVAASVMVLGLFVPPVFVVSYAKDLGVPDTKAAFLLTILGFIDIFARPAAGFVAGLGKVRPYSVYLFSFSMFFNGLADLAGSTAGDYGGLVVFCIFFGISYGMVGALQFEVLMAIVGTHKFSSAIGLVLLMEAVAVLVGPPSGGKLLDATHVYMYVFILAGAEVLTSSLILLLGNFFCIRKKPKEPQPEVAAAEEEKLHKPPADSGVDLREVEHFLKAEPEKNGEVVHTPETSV", "T1 sequence (P35613 22-385 partner)": "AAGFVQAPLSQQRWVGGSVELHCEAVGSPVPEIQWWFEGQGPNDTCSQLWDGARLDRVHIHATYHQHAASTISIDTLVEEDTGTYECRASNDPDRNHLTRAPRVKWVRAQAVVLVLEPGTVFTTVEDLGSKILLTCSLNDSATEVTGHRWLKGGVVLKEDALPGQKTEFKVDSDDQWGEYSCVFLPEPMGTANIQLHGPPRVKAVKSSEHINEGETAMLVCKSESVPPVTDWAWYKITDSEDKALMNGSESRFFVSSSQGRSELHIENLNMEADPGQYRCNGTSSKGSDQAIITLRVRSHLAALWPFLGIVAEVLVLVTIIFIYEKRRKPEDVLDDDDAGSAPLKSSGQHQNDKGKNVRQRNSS", "assay": "intracellular lactate accumulation and 3H-lactate efflux in HAP1 MCT1-KO cells; DARTS in HCT116 membrane extracts", "assay_type": "cell-based"}, "[2]": {"target": "T2, MCT1 (monocarboxylate transporter 1) (Homo sapiens, UniProt P53985)", "T2 construct": "gene SLC16A1", "T2 sequence (P53985 1-500)": "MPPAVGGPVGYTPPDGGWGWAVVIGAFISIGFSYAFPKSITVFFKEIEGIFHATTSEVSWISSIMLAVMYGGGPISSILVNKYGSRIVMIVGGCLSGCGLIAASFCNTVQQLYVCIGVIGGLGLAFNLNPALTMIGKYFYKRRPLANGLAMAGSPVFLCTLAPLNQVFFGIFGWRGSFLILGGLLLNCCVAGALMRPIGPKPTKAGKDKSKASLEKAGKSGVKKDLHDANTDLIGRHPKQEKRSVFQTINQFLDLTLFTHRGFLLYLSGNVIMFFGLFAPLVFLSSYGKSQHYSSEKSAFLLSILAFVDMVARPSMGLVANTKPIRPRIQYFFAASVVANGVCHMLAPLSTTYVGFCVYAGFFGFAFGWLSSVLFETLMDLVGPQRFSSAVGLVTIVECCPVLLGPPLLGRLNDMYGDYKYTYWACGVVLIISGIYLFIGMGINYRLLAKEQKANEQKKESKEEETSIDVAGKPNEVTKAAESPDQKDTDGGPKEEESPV", "T2 sequence (P35613 22-385 partner)": "T1 sequence (P35613 22-385 partner)", "assay": "intracellular lactate accumulation and 3H-lactate efflux in HAP1 MCT4-KO cells; DARTS in HCT116 membrane extracts"}},
  "data": [
    {"smiles": "CCOC(=O)Oc1c(OC)cc(C(=O)O[C@@H]2C[C@@H]3CN4CCc5c([nH]c6cc(OC)ccc56)[C@H]4C[C@@H]3[C@H](C(=O)OC)[C@H]2OC)cc1OC", "note": "[Syrosingopine]", "values": [
      {"measurement": "IC50", "setting": "[1]", "value": "~0.04", "unit": "µM"},
      {"measurement": "IC50", "setting": "[2]", "value": "~2.5", "unit": "µM"}
    ]}
  ]
}
